Experimental data reported in article PMC11990670, “Exploring the Volatility, Phase Transitions, and Solubility Properties of Five Halogenated Benzaldehydes” (Molecules, 2025).
Marks after values point to notes of the source that are not given here. Each block holds one compound with its values, some of them ahead of it.

Test: Vapor pressures of crystalline and liquid phases, static method with capacitance diaphragm gauge
Assay type: physicochemical
Excerpt: A previously described and tested static apparatus was used to measure the vapor pressures of the condensed phases (both crystalline and liquid) of the five compounds studied. This installation employs MKS capacitance diaphragm absolute gauges, operating at self-regulated constant temperatures. Our lab is equipped with three pressure gauges. Gauge I, a Baratron 631A01TBEH (MKS instruments, Andover, MA, USA) (Tgauge = 423 K), measures pressures in the range of 0.5 to 1.3 × 10^2 Pa and operates within a temperature range of 253 to 413 K. Gauge II, the instrument used in this study, is a Baratron 631A11TBFP (MKS instruments, Andover, MA, USA) (Tgauge = 473 K), capable of measuring pressures from 0.5 to 1.3 × 10^3 Pa within a temperature range of 253 to 433 K and gauge III, a Baratron 631D02T8FP (MKS instruments, Andover, MA, USA) (Tgauge = 473 K), designed to measure pressures between 0.5 Pa and 2.6 × 10^2 Pa, also within a temperature range of 253 to 433 K. The temperatures of the samples were measured using a Pt100 platinum resistance thermometer, calibrated by comparison with a standard platinum resistance thermometer (SPRT: Tinsley Precision Instruments Ltd, London, England). To prevent vapor condensation, the tubing connecting the cell containing the condensed sample to the pressure gauge is maintained at a temperature higher than that of the sample but lower than that of the gauge. The uncertainty in temperature measurements is estimated to be u(T/K) = ±0.01, and the expanded uncertainties (0.95 confidence level, k = 2) in pressure measurements are given by the expression U(p/Pa) = 0.1 + 0.0050 (p/Pa) for the gauge used. Samples were thoroughly degassed before starting the vapor pressure measurements, ensuring consistent readings at specific temperatures and eliminating any residual volatile substances, including water.

vapor pressure p (crystalline phase, T = 284.21 K): 0.49 Pa
vapor pressure p (crystalline phase, T = 286.16 K): 0.63 Pa
vapor pressure p (crystalline phase, T = 288.13 K): 0.78 Pa
vapor pressure p (crystalline phase, T = 290.09 K): 0.99 Pa
vapor pressure p (crystalline phase, T = 292.06 K): 1.26 Pa
vapor pressure p (crystalline phase, T = 294.04 K): 1.58 Pa
vapor pressure p (crystalline phase, T = 296.22 K): 2.00 Pa
vapor pressure p (crystalline phase, T = 298.17 K): 2.47 Pa
vapor pressure p (crystalline phase, T = 299.97 K): 3.02 Pa
vapor pressure p (crystalline phase, T = 302.18 K): 3.78 Pa
vapor pressure p (crystalline phase, T = 303.89 K): 4.58 Pa
vapor pressure p (crystalline phase, T = 305.78 K): 5.63 Pa
vapor pressure p (crystalline phase, T = 308.08 K): 7.12 Pa
vapor pressure p (crystalline phase, T = 309.86 K): 8.45 Pa
vapor pressure p (crystalline phase, T = 312.03 K): 10.58 Pa
vapor pressure p (crystalline phase, T = 313.92 K): 12.78 Pa
vapor pressure p (crystalline phase, T = 315.60 K): 15.22 Pa
vapor pressure p (crystalline phase, T = 317.96 K): 18.67 Pa
vapor pressure p (crystalline phase, T = 319.59 K): 21.97 Pa
vapor pressure p (crystalline phase, T = 321.86 K): 27.35 Pa
vapor pressure p (crystalline phase, T = 323.56 K): 31.92 Pa
vapor pressure p (crystalline phase, T = 325.70 K): 39.35 Pa
vapor pressure p (crystalline phase, T = 327.48 K): 45.52 Pa
vapor pressure p (crystalline phase, T = 329.63 K): 56.32 Pa
vapor pressure p (crystalline phase, T = 331.62 K): 65.87 Pa
vapor pressure p (liquid phase, T = 335.54 K): 91.33 Pa
vapor pressure p (liquid phase, T = 337.55 K): 103.4 Pa
vapor pressure p (liquid phase, T = 339.54 K): 117.4 Pa
vapor pressure p (liquid phase, T = 341.49 K): 133.6 Pa
vapor pressure p (liquid phase, T = 343.48 K): 150.6 Pa
vapor pressure p (liquid phase, T = 345.45 K): 169.9 Pa
vapor pressure p (liquid phase, T = 347.44 K): 189.1 Pa
vapor pressure p (liquid phase, T = 349.41 K): 214.0 Pa
vapor pressure p (liquid phase, T = 351.50 K): 240.6 Pa
vapor pressure p (liquid phase, T = 353.48 K): 267.2 Pa
vapor pressure p (liquid phase, T = 355.36 K): 297.6 Pa
vapor pressure p (liquid phase, T = 357.43 K): 335.9 Pa
vapor pressure p (liquid phase, T = 359.33 K): 371.6 Pa
vapor pressure p (liquid phase, T = 361.39 K): 419.6 Pa
vapor pressure p (liquid phase, T = 363.27 K): 461.9 Pa
vapor pressure p (liquid phase, T = 365.34 K): 516.4 Pa
vapor pressure p (liquid phase, T = 367.35 K): 569.4 Pa
vapor pressure p (liquid phase, T = 369.27 K): 630.4 Pa
vapor pressure p (liquid phase, T = 371.17 K): 695.2 Pa
vapor pressure p (liquid phase, T = 373.23 K): 767.3 Pa
vapor pressure p (liquid phase, T = 375.13 K): 843.4 Pa
vapor pressure p (liquid phase, T = 377.17 K): 930.5 Pa
vapor pressure p (liquid phase, T = 379.07 K): 1011 Pa
vapor pressure p (liquid phase, T = 381.03 K): 1104 Pa
vapor pressure p (supercooled liquid, T = 327.59 K): 54.84 ^d Pa
vapor pressure p (supercooled liquid, T = 329.66 K): 62.05 ^d Pa
vapor pressure p (supercooled liquid, T = 331.60 K): 71.02 ^d Pa
vapor pressure p (supercooled liquid, T = 333.65 K): 80.84 ^d Pa
Compound: O=Cc1cccc(Cl)c1Cl [2,3-Dichlorobenzaldehyde]

Compound: O=Cc1ccc(Cl)cc1Cl [2,4-Dichlorobenzaldehyde]
vapor pressure p (crystalline phase, T = 285.78 K): 0.64 Pa
vapor pressure p (crystalline phase, T = 287.68 K): 0.80 Pa
vapor pressure p (crystalline phase, T = 289.73 K): 1.02 Pa
vapor pressure p (crystalline phase, T = 291.36 K): 1.23 Pa
vapor pressure p (crystalline phase, T = 293.15 K): 1.50 Pa
vapor pressure p (crystalline phase, T = 294.83 K): 1.81 Pa
vapor pressure p (crystalline phase, T = 296.85 K): 2.29 Pa
vapor pressure p (crystalline phase, T = 298.81 K): 2.85 Pa
vapor pressure p (crystalline phase, T = 301.19 K): 3.67 Pa
vapor pressure p (crystalline phase, T = 303.16 K): 4.55 Pa
vapor pressure p (crystalline phase, T = 305.23 K): 5.65 Pa
vapor pressure p (crystalline phase, T = 307.12 K): 6.86 Pa
vapor pressure p (crystalline phase, T = 308.88 K): 8.29 Pa
vapor pressure p (crystalline phase, T = 310.95 K): 10.12 Pa
vapor pressure p (crystalline phase, T = 313.23 K): 12.78 Pa
vapor pressure p (crystalline phase, T = 315.25 K): 15.58 Pa
vapor pressure p (crystalline phase, T = 317.80 K): 20.05 Pa
vapor pressure p (crystalline phase, T = 320.56 K): 26.18 Pa
vapor pressure p (crystalline phase, T = 322.93 K): 32.84 Pa
vapor pressure p (crystalline phase, T = 325.24 K): 40.77 Pa
vapor pressure p (crystalline phase, T = 327.66 K): 50.25 Pa
vapor pressure p (crystalline phase, T = 329.75 K): 60.90 Pa
vapor pressure p (crystalline phase, T = 331.73 K): 72.78 Pa
vapor pressure p (crystalline phase, T = 333.66 K): 85.89 Pa
vapor pressure p (crystalline phase, T = 335.72 K): 102.0 Pa
vapor pressure p (crystalline phase, T = 337.64 K): 119.1 Pa
vapor pressure p (crystalline phase, T = 339.73 K): 141.9 Pa
vapor pressure p (crystalline phase, T = 341.66 K): 166.2 Pa
vapor pressure p (liquid phase, T = 344.36 K): 207.6 Pa
vapor pressure p (liquid phase, T = 346.33 K): 233.6 Pa
vapor pressure p (liquid phase, T = 348.33 K): 261.6 Pa
vapor pressure p (liquid phase, T = 349.66 K): 282.0 Pa
vapor pressure p (liquid phase, T = 351.41 K): 310.8 Pa
vapor pressure p (liquid phase, T = 353.17 K): 342.8 Pa
vapor pressure p (liquid phase, T = 355.39 K): 390.3 Pa
vapor pressure p (liquid phase, T = 357.59 K): 437.4 Pa
vapor pressure p (liquid phase, T = 359.46 K): 479.4 Pa
vapor pressure p (liquid phase, T = 361.34 K): 533.0 Pa
vapor pressure p (liquid phase, T = 363.54 K): 603.2 Pa
vapor pressure p (liquid phase, T = 365.63 K): 668.2 Pa
vapor pressure p (liquid phase, T = 367.44 K): 733.6 Pa
vapor pressure p (liquid phase, T = 369.34 K): 810.6 Pa
vapor pressure p (liquid phase, T = 371.29 K): 885.4 Pa
vapor pressure p (liquid phase, T = 373.62 K): 998.4 Pa
vapor pressure p (liquid phase, T = 375.74 K): 1100 Pa
vapor pressure p (supercooled liquid, T = 324.34 K): 57.72 ^d Pa
vapor pressure p (supercooled liquid, T = 326.40 K): 66.54 ^d Pa
vapor pressure p (supercooled liquid, T = 328.22 K): 75.25 ^d Pa
vapor pressure p (supercooled liquid, T = 330.22 K): 85.67 ^d Pa
vapor pressure p (supercooled liquid, T = 332.21 K): 97.72 ^d Pa
vapor pressure p (supercooled liquid, T = 334.17 K): 110.6 ^d Pa
vapor pressure p (supercooled liquid, T = 336.16 K): 125.6 ^d Pa
vapor pressure p (supercooled liquid, T = 338.15 K): 141.4 ^d Pa
vapor pressure p (supercooled liquid, T = 340.44 K): 163.3 ^d Pa
vapor pressure p (supercooled liquid, T = 342.29 K): 184.1 Pa
